According to doi:10.1101/2020.10.22.350827v1 (biorxiv, 2020):
Numbering of substitutions follows the chain as printed.

What was measured:
[1] = target: T1, Nluc-A1R (adenosine A1 receptor) Q9A (Homo sapiens, UniProt P30542, Q9A); test: cell-based; set-up: species or system HEK 293
T1 sequence (P30542 1-326 Q9A): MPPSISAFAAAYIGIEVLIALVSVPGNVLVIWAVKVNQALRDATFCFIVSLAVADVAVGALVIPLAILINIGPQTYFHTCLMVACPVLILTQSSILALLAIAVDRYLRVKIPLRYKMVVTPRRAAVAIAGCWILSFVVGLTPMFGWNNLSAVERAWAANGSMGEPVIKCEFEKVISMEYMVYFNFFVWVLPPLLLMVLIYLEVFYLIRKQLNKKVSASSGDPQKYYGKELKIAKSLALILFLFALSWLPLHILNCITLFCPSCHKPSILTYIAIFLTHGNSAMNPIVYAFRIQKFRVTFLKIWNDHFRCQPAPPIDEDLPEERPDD

[2] = target: T2, Nluc-A1R (adenosine A1 receptor) (Homo sapiens, UniProt P30542, I175A); test: NanoBRET competition binding, live HEK […] cells; assay type: cell-based
T2 sequence (P30542 1-326 I175A): T1 sequence (P30542 1-326 Q9A) with A9Q, I175A

[3] = target: T3, Nluc-A1R (adenosine A1 receptor) (Homo sapiens, UniProt P30542, L253A); test: NanoBRET competition binding, live HEK […] cells; assay type: cell-based
T3 sequence (P30542 1-326 L253A): T1 sequence (P30542 1-326 Q9A) with A9Q, L253A

[4] = target: T4, Nluc-A1R (adenosine A1 receptor) K265A (Homo sapiens, UniProt P30542, K265A); test: cell-based; set-up: species or system HEK 293
T4 sequence (P30542 1-326 K265A): T1 sequence (P30542 1-326 Q9A) with A9Q, K265A

[5] = target: T5, Nluc-A1R (adenosine A1 receptor) (Homo sapiens, UniProt P30542); test: NanoBRET competition binding, live HEK […] cells; assay type: cell-based
T5 sequence (P30542 1-326): T1 sequence (P30542 1-326 Q9A) with A9Q

[6] = target: T6, Nluc-A1R (adenosine A1 receptor) S267A (Homo sapiens, UniProt P30542, S267A); test: cell-based; set-up: species or system HEK 293
T6 sequence (P30542 1-326 S267A): T1 sequence (P30542 1-326 Q9A) with A9Q, S267A

[7] = target: T7, Nluc-A1R (adenosine A1 receptor) (Homo sapiens, UniProt P30542, Y271A); test: NanoBRET competition binding, live HEK […] cells; assay type: cell-based
T7 sequence (P30542 1-326 Y271A): T1 sequence (P30542 1-326 Q9A) with A9Q, Y271A

Ki [1]: 1.95 µM
Ki [2]: 2.19 µM
Ki [3]: 3.24 µM
Ki [4]: 0.977 µM
Ki [5]: 0.427 µM
Ki [6]: 1.02 µM
Ki [7]: 7.08 µM
Structure (SMILES): OC[C@H]1O[C@@H](n2cnc3c(N[C@@H]4CCC[C@H]4O)ncnc32)[C@H](O)[C@@H]1O [compound 6, HOCPA]
